Laboratory results reported in patent publication US11267800B2, “Cyclohexyl acid triazole azines as LPA antagonists” (BRISTOL-MYERS SQUIBB COMPANY, priority 2017, dated 2022).

biological target: T1, human LPA1 (Homo sapiens, UniProt Q92633); assay: LPA1 functional antagonist assay (calcium flux); format: cell-based; conditions: CHO cells overexpressing human LPA1; inhibition of calcium flux induced by 10 nM LPA; read-out: hLPA1 IC50
T1 construct: expressed in transfected cells; host or cells: Chinese hamster ovary (CHO) cells
Method in brief: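 IC50 values come from 4-parameter logistic fits and mark 50% block of the calcium flux evoked by 10 nM LPA. Human LPA1-overexpressing CHO cells were calcium-dye loaded at 37 °C, then given test compound (0.08 nM–5 μM, 0.5% DMSO, HEPES-buffered HBSS with 0.1% fatty-acid-free BSA) for 20 min at room temperature before agonist.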

T1 sequence (Q92633 whole entry): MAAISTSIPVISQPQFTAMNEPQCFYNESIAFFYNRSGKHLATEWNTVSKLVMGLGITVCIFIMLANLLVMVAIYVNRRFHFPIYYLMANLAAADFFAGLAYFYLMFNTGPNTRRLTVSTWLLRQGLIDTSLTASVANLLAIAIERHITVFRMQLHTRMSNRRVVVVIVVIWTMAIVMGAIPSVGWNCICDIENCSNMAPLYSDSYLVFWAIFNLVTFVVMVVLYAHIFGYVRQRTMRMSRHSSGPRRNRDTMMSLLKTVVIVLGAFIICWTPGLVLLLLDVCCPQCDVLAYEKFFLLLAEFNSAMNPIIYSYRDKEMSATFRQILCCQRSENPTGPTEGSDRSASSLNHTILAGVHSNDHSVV

IC50 [nM] | Compound
54 | COc1ccc(Oc2ccnc(NCc3c(-c4ccc(O[C@H]5CCC[C@H](C(=O)O)C5)c(C)n4)nnn3C)n2)cc1 [Example 107]
103 | Cc1nc(-c2nnn(C)c2Nc2nccc(OCCC(F)(F)F)n2)ccc1O[C@H]1CCC[C@H](C(=O)O)C1 [Example 394]
63 | Cc1nc(-c2nnn(C)c2CNc2ncc(F)c(NCCC(C)C)n2)ccc1O[C@H]1CCC[C@H](C(=O)O)C1 [Example 52]
58 | Cc1nc(-c2nnn(C)c2CNc2ncc(F)c(NC3CCC3)n2)ccc1O[C@H]1CCC[C@H](C(=O)O)C1 [Example 53]
33 | Cc1nc(-c2nnn(C)c2CNc2nccc(-c3ccccc3F)n2)cnc1O[C@H]1CCC[C@H](C(=O)O)C1 [Example 138]
34 | COc1cc(OCc2c(-c3ccc(O[C@H]4CCC[C@H](C(=O)O)C4)cn3)nnn2C)ncn1 [Example 351]
93 | CCCc1cnnc(NCc2c(-c3ccc(O[C@H]4CCC[C@H](C(=O)O)C4)c(C)n3)nnn2C)c1 [Example 212, (1S,3S)-3-((2-Methyl-6-(1-methyl-5-(((5-propylpyridazin-3-yl)amino)methyl)-1H-1,2,3-triazol-4-yl)pyridin-3-yl)oxy)cyclohexane-1-carboxylic acid]
77 | COCCCCOc1ccnc(NCc2c(-c3ccc(O[C@H]4CCC[C@H](C(=O)O)C4)c(C)n3)nnn2C)n1 [Example 87]
25 | Cc1nc(-c2nnn(C)c2CNc2nccc(Oc3ccccc3F)n2)ccc1O[C@H]1CCC[C@H](C(=O)O)C1 [Example 115]
56 | COc1ccnc(NCc2c(-c3ccc(O[C@H]4CCC[C@H](C(=O)O)C4)c(C)n3)nnn2C)n1 [Example 12]
56 | CCOc1cc(C)nc(NCc2c(-c3ccc(O[C@H]4CCC[C@H](C(=O)O)C4)c(C)n3)nnn2C)n1 [Example 174]
288 | Cc1nc(-c2nnn(C)c2CNc2ncnc(C3CCCCC3)n2)ccc1O[C@H]1CCC[C@H](C(=O)O)C1 [Example 185]
50 | CCCOc1ccnc(Nc2c(-c3ccc(O[C@H]4CCC[C@H](C(=O)O)C4)c(C)n3)nnn2C)n1 [Example 239, (1S,3S)-3-((2-methyl-6-(1-methyl-5-((4-propoxypyrimidin-2-yl)amino)-1H-1,2,3-triazol-4-yl)pyridin-3-yl)oxy) cyclohexane-1-carboxylic acid]
225 | CCCOc1ccnc(Nc2c(-c3ccc(O[C@H]4CCC[C@H](C(=O)O)C4)cn3)nnn2C)n1 [Example 246, (1S,3S)-3-((6-(1-methyl-5-((4-propoxypyrimidin-2-yl)amino)-1H-1,2,3-triazol-4-yl)pyridin-3-yl)oxy) cyclohexane-1-carboxylic acid]
385 | COCC(C)(C)c1ccnc(NCc2c(-c3ccc(O[C@H]4CCC[C@H](C(=O)O)C4)c(C)n3)nnn2C)n1 [Example 124]
50 | Cc1nc(-c2nnn(C)c2CNc2nccc(OC3CC(F)(F)C3)n2)ccc1O[C@H]1CCC[C@H](C(=O)O)C1 [Example 262]
2370 | Cc1nc(-c2nnn(C)c2CNc2nc(C(N)=O)cc(C(C)(C)C)n2)ccc1O[C@H]1CCC[C@H](C(=O)O)C1 [Example 162]
8.8 | Cc1nc(-c2nnn(C)c2COc2cc(C3CC3)ccn2)ccc1O[C@H]1CCC[C@H](C(=O)O)C1 [Example 283]
65 | Cc1nc(-c2nnn(C)c2CNc2ccnc(OCC(C)(F)F)n2)ccc1O[C@H]1CCC[C@H](C(=O)O)C1 [Example 77]
90 | Cc1nc(-c2nnn(C)c2CNc2ccnc(C3CC3)n2)ccc1O[C@H]1CCC[C@H](C(=O)O)C1 [Example 374]

IC50 [nM] | Compound
218 | Cc1nc(-c2nnn(C)c2CNc2ncc(F)c(N3CCC3)n2)ccc1O[C@H]1CCC[C@H](C(=O)O)C1 [Example 42]
84 | Cc1nc(-c2nnn(C)c2CNc2cc(C(C)(C)C)ccn2)ccc1O[C@H]1CCC[C@H](C(=O)O)C1 [Example 150]
104 | Cn1nnc(-c2ccc(O[C@H]3CCC[C@H](C(=O)O)C3)c(C#N)n2)c1CNc1nccc(C(C)(C)C)n1 [Example 407]
21 | CCC(C)c1ccnc(NCc2c(-c3ccc(O[C@H]4CCC[C@H](C(=O)O)C4)c(C)n3)nnn2C)n1 (some centres unmarked) [Example 159]
24.9 | Cc1nc(-c2nnn(C)c2Cc2nccc(-c3ccccc3)n2)ccc1O[C@H]1CCC[C@H](C(=O)O)C1 [Example 378]
43 | Cc1nc(-c2nnn(C)c2CNc2ncnc(C(C)C)n2)ccc1O[C@H]1CCC[C@H](C(=O)O)C1 [Example 333]
96 | CCOCCOc1cc(OCc2c(-c3ccc(O[C@H]4CCC[C@H](C(=O)O)C4)c(C)n3)nnn2C)ncn1 [Example 362]
199 | Cc1nc(-c2nnn(C)c2CNc2cc(-c3ccccc3)c(Cl)nn2)ccc1O[C@H]1CCC[C@H](C(=O)O)C1 [Example 372, (1S,3S)-3-((6-(5-(((6-chloro-5-phenylpyridazin-3-yl)amino)methyl)-1-methyl-1H-1,2,3-triazol-4-yl)-2-methylpyridin-3-yl)oxy)cyclohexane-1-carboxylic acid]
168 | COC(=O)c1cc(C2CCC2)nc(NCc2c(-c3ccc(O[C@H]4CCC[C@H](C(=O)O)C4)c(C)n3)nnn2C)n1 [Example 163]
28 | CCC(F)(F)c1ccnc(NCc2c(-c3ccc(O[C@H]4CCC[C@H](C(=O)O)C4)c(C)n3)nnn2C)n1 [Example 134]
32 | CCOc1nc(NCc2c(-c3ccc(O[C@H]4CCC[C@H](C(=O)O)C4)c(C)n3)nnn2C)nc(C2CC2)n1 [Example 202, (1S,3S)-3-((6-(5-(((4-Cyclopropyl-6-ethoxy-1,3,5-triazin-2-yl)amino)methyl)-1-methyl-1H-1,2,3-triazol-4-yl)-2-methylpyridin-3-yl)oxy) cyclohexane-1-carboxylic acid]
85 | Cc1nc(-c2nnn(C)c2CNc2nccc(Oc3c(F)cc(F)cc3F)n2)ccc1O[C@H]1CCC[C@H](C(=O)O)C1 [Example 100]
178 | Cn1nnc(-c2ccc(O[C@H]3CCC[C@H](C(=O)O)C3)cn2)c1CNc1nccc(Oc2ccccc2)n1 [Example 31]
233 | Cc1nc(-c2nnn(C)c2CNc2ccnc(OCC(C)(C)C)n2)ccc1O[C@H]1CCC[C@H](C(=O)O)C1 [Example 61]
120 | Cc1nc(-c2nnn(C)c2COc2cc(-n3cncn3)ncn2)ccc1O[C@H]1CCC[C@H](C(=O)O)C1 [Example 357]
166 | Cc1cc(-c2ccccn2)nc(NCc2c(-c3ccc(O[C@H]4CCC[C@H](C(=O)O)C4)cn3)nnn2C)n1 [Example 37]
278 | Cc1nc(-c2nnn(C)c2CNc2ncc3c(n2)-c2ccccc2OC3)ccc1O[C@H]1CCC[C@H](C(=O)O)C1 [Example 147]
122 | COCCOc1ccnc(NCc2c(-c3ccc(O[C@H]4CCC[C@H](C(=O)O)C4)c(C)n3)nnn2C)n1 [Example 82]
44 | CCCN(C)c1nc(NCc2c(-c3ccc(O[C@H]4CCC[C@H](C(=O)O)C4)c(C)n3)nnn2C)ncc1F [Example 44]
7.5 | Cc1nc(-c2nnn(C)c2COc2nccc(C3CC3)n2)ccc1O[C@H]1CCC[C@H](C(=O)O)C1 [Example 302]

Compound | IC50 [nM]
Cc1nc(-c2nnn(C)c2CNc2cc(OCC(C)C)ncn2)ccc1O[C@H]1CCC[C@H](C(=O)O)C1 [Example 329, (1S,3S)-3-((6-(5-(((6-Isobutoxypyrimidin-4-yl)amino)methyl)-1-methyl-1H-1,2,3-triazol-4-yl)-2-methylpyridin-3-yl)oxy)cyclohexane-1-carboxylicacid] | 82
